Results reported in publication PMC3266667 (Frontiers in Pharmacology, 2012).
Where two headings read alike, the source gives them in different places.

Biological target: hERG K+ channels (Homo sapiens, UniProt Q12809)
[1] = Patchliner, CHO-hERG cells, physiological temperature

Chain of hERG K+ channels (Q12809 whole entry): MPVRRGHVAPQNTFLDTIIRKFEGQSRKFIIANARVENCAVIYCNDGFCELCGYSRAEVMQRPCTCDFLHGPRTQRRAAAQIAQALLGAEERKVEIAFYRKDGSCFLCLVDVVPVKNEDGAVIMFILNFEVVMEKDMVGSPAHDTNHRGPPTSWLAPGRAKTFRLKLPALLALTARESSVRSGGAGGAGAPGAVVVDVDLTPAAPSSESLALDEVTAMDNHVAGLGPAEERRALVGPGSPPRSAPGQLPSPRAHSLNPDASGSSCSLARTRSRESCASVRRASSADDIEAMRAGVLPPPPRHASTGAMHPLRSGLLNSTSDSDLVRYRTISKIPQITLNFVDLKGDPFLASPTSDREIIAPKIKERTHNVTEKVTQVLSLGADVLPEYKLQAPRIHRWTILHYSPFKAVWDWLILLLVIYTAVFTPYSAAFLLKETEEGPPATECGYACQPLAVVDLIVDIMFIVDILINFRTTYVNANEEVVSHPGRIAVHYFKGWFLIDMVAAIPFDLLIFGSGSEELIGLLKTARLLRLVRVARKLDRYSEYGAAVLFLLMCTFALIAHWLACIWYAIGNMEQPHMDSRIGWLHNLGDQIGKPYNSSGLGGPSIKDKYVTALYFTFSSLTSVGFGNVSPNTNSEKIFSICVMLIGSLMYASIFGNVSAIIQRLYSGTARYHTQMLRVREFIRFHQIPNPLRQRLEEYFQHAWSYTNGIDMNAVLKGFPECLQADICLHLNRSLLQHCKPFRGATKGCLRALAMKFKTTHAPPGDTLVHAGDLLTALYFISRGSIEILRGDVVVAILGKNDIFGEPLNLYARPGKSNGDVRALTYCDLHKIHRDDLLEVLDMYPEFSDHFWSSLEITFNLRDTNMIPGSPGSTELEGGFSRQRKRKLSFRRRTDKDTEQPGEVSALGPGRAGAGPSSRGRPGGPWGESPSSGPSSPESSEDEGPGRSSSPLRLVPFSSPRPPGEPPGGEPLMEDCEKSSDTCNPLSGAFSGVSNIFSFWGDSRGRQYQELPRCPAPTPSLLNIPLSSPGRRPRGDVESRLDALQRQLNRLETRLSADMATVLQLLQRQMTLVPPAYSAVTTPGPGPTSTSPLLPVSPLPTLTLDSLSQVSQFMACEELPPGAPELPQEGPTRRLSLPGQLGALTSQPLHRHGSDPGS

Compound	effect on the hERG current (in words) [1]	effect on the hERG current (in words)	other results
CC(C)Cc1ccc(C(C)C(=O)O)cc1 (centres unmarked) [Ibuprofen]	did not affect the hERG current up to the highest concentration tested		
Cc1cc2c(s1)Nc1ccccc1N=C2N1CCN(C)CC1 [Olanzapine]		intermediate effect on the hERG current	
C[C@H](CS)C(=O)N1CCC[C@H]1C(=O)O [Captopril]	did not affect the hERG current up to the highest concentration tested		
COc1cc(N)c(Cl)cc1C(=O)NC1CCN(CCCOc2ccc(F)cc2)CC1OC (centres unmarked) [Cisapride]			effect on the hERG current (in words) (human): IC50 values in the low and mid-nanomolar range
CC(C)NCC(O)c1ccc(NS(C)(=O)=O)cc1 (racemic) [D,L-Sotalol]		intermediate effect on the hERG current	
